11 compounds from patent US20250084096A1, “TERT-BUTYL (S)-2-(4-(PHENYL)-6H-THIENO[3, 2-F][1, 2, 4]TRIAZOLO[4, 3-A] [1,4]DIAZEPIN-6-YL) ACETATE DERIVATIVES AND RELATED COMPOUNDS AS BROMODOMAIN BRD4 INHIBITORS FOR TREATING CANCER” (Genentech, Inc., priority 2018, published 2025) can be followed below.

The test system of one experiment is MYC expression. The experiment can be described thus: Myc mRNA assay in MV-4-11 cells. Type of experiment: cell-based. The note with it: for Maximum Inhibition (%) (mean) of MYC expression: 4 hours, QuantiGene 2.0; for IC50: Homo sapiens, MV4-11, 4 hours, QuantiGene 2.0, read-out: Inhibition of MYC expression Average IC50. Here is the method: Pharmacologic inhibition of MYC is achievable through targeting BET bromodomains through small molecule binder or degrader mechanisms.
Test compounds diluted in DMSO were transferred to the cell plates, keeping final DMSO concentration consistent at 0.1%, and incubated for 4 hours at 37° C. […] Luminescence was read using an EnVision plate reader (PerkinElmer) and IC50s generated in Genedata Screener using a 4-parameter non-linear regression fit.

The target of a further experiment is BRD4_BD2 bromodomain (Homo sapiens (Human), UniProt O60885). In words: BRD4 BD2 biochemical binding assay (TR-FRET). Conditions: displacement of biotinylated ligand Compound C. Here is the method:
(§1) The following assay was used to measure the IC50 for the test compounds ability to bind to the BRD4_BD1 and BRD4_BD2 bromodomains.
(§2) DMSO was backfilled to a final volume of 30 nL as required. […] 1× Assay Buffer was dispensed (5 μL per well) into Minimum Signal control wells. 5 μL of Solution A-3× was dispensed into test wells and Maximum Signal control wells (containing DMSO instead of test compound). Samples were incubated 10 minutes at room temperature. 5 μL of Solution B-3x was dispensed into all wells. Samples were incubated incubate for 10 minutes at room temperature. 5 μL of Solution C-3x was dispensed into all wells. Samples were incubated 40 minutes at room temperature. Plates were read using an Envision (Perkin Elmer) with the following settings: Detection—LANCE Dual Laser 50/200. […] Percentage inhibition was calculated relative to the Minimum Signal control and Maximum Signal control wells. IC50 values were derived by four parameter curve fitting using the Robust method.
In general terms: TR-FRET usually uses a lanthanide donor and a delayed reading to cut background.

The target in a further experiment is BRD4_BD1 bromodomain (Homo sapiens (Human), UniProt O60885). The experiment can be described thus: BRD4 BD1 biochemical binding assay (TR-FRET). The note with it: displacement of biotinylated ligand Compound C. The method, then: as §1, §2
In experiment [1] the target is T1, BRD4 (Homo sapiens (Human), UniProt O60885). In words: BRD4 degradation assay in PC3-Steap1 cells. Type of experiment: cell-based. The note with it: 4 hours; for Dmax: complete loss = −100%, read-out: Sinf (maximum degradation, percent change in protein level); for DC50: immunofluorescence, read-out: Degradation of BRD4 Average EC50. The method, then:
2 μL of each sample from the serial dilution was transferred to 98 μL of assay media as an intermediate dilution. 5 μL of intermediate dilution was added to 45 μL of cell plate. Columns 1, 2, 23 and 24 were treated with only 0.2% w/v final concentration of DMSO for data normalization as “neutral controls”. After compound treatment, cell plates were stored in a 37° C. incubator for 4 hours.
Cell plate was incubated at room temperature for 20 minutes. Well contents were aspirated and washed with 100 μL/well PBS 3 times. 50 μL/well of PBS containing 0.5% w/v bovine serum albumen, 0.5% w/v Triton X-100 (Antibody Dilution Buffer) was added to each well. Samples were incubated for 30 minutes. Well contents were aspirated and washed 3 times with 100 μL/well of PBS. PBS was aspirated from the wells.
25 μL per well of BRD4 antibody diluted in buffer was added and incubated overnight at 4° C. On day-3 samples were washed 3 times with 100 μL/well of PBS. […] Samples were incubated for 2 hours at room temperature. Samples were washed 3 times with 100 μL PBS.
(§3) Quantitative fluorescence imaging of BRD4 was carried out using an Opera Phenix High-Content Screening System. […] Hoechst channel was used to identify nuclear region. […] Data analysis was carried out using Genedata Screener, with DMSO and no primary antibody control treated samples being used to define the 0% and 100% changes in BRD4. The dose-response log(inhibitor) vs. response was used to define the inflexion point of curve (IC50) and the plateau of the maximal effect. The Sit value reports degradation as percent change in protein level, so complete loss of the protein target is −100%. Sinf is the maximum degradation achieved, obtained by determining the bottom of a dose-response (where the S-shaped curve levels out).

Experiment [2] has as its target T1, BRD4. In words: BRD4 degradation assay in EoL-1 cells. In kind it is cell-based. Conditions: for DC50: 4 hours, immunofluorescence, read-out: Degradation of BRD4 Average EC50; for Dmax: EOL1, 4 hours, complete loss = −100%, read-out: Sinf (maximum degradation, percent change in protein level). Here is the method: 2 μL of each sample from the serial dilution was transferred to 98 μL of assay media as an intermediate dilution. 5 μL of each well of the intermediate dilution was added to 45 μL of cell plate. Columns 1, 2, 23 and 24 were treated with only 0.2% final concentration of DMSO for data normalization as “neutral controls”. After compound treatment, cell plates were stored in a 37° C. incubator for 4 hours.
The cell plate was incubated at room temperature for 20 minutes. Well contents were aspirated and washed with 100 μL/well PBS 3 times. 50 μL/well of PBS (pH7.5) containing 0.5% w/v bovine serum albumen, 0.5% w/v Triton X-100 (Block/Permeabilzation Buffer) was added to each well. Samples were incubated for 20 minutes. Well contents were aspirated and washed 3 times with 100 μL/well of PBS. PBS was aspirated from the well and 50 μL per well of EoL-1 Block Buffer (PBS containing 10% Normal Goat Serum (Abcam #ab7481)) was added to each well. Plates were incubated at room temperature for 30 minutes. Block buffer was decanted from the wells.
25 μL per well of BRD4 antibody diluted in buffer was added and incubated overnight at 4° C. On day-2 samples were washed 3 times with 100 μL/well of PBS. […] Samples were incubated for 2 hours at room temperature. Samples were washed 3 times with 100 μL PBS.
as §3, with “Sinf” for “Sit”

Consider `Cc1sc2c(c1C)C(c1ccc(C#CCN)cc1)=N[C@@H](CC(=O)OC(C)(C)C)c1nnc(C)n1-2` [Compound 1a, tert-butyl (S)-2-(4-(4-(3-aminoprop-1-yn-1-yl)phenyl)-2,3,9-trimethyl-6H-thieno[3,2-f][1,2,4]triazolo[4,3-a][1,4]diazepin-6-yl)acetate], for which, in the experiment on MYC expression, the “Maximum Inhibition (%) (mean) of MYC expression” value (from here on “Maximum Inhibition (%) (mean)”) is listed as 89.1%. Also, the half-maximal inhibitory concentration (IC50) with MYC expression stood at 2.9 nM; at BRD4_BD2 bromodomain, 12.3 nM; at BRD4_BD1 bromodomain it was 15.5 nM. Moreover, the figures for the Dmax on BRD4 [1] and at BRD4 [2] were -84.6% and -83.8%, respectively. For the same compound, the DC50 is 1.4 nM on BRD4 [1] and 1.3 nM at BRD4 [2].
With `Cc1sc2c(c1C)C(c1ccc(C#CCCN)cc1)=N[C@@H](CC(=O)OC(C)(C)C)c1nnc(C)n1-2` [Compound 4a, tert-butyl (S)-2-(4-(4-(4-aminobut-1-yn-1-yl)phenyl)-2,3,9-trimethyl-6H-thieno[3,2-f][1,2,4]triazolo[4,3-a][1,4]diazepin-6-yl)acetate], the “Maximum Inhibition (%) (mean)” value in the experiment with MYC expression is 79.4%. Besides, the half-inhibitory concentration (IC50) in the experiment on MYC expression is 19.8 nM; at BRD4_BD2 bromodomain it was 17.7 nM; at BRD4_BD1 bromodomain it was 13 nM. Further, on BRD4 [1], the Dmax was -54.7%. Moreover, the DC50 on BRD4 [1] turned out to be 3.4 nM.
`Cc1sc2c(c1C)C(c1ccc(C#CCNC(=N)N)cc1)=N[C@@H](CC(=O)OC(C)(C)C)c1nnc(C)n1-2` [Compound 5a, tert-butyl (S)-2-(4-(4-(3-guanidinoprop-1-yn-1-yl)phenyl)-2,3,9-trimethyl-6H-thieno[3,2-f][1,2,4]triazolo[4,3-a][1,4]diazepin-6-yl)acetate]: in the experiment with MYC expression, the “Maximum Inhibition (%) (mean)” value came out at 87.6%. The figures for the half-maximal inhibitory concentration (IC50) in the experiment on MYC expression, at BRD4_BD2 bromodomain and on BRD4_BD1 bromodomain were 124 nM, 8.5 nM and 7.2 nM, respectively. Besides, the Dmax on BRD4 [1] was -86%. Besides, on BRD4 [1], the DC50 is 101 nM.
In the case of `Cc1sc2c(c1C)C(c1ccc(/C=C/CN)cc1)=N[C@@H](CC(=O)OC(C)(C)C)c1nnc(C)n1-2` [Compound 6a, tert-butyl (S,E)-2-(4-(4-(3-aminoprop-1-en-1-yl)phenyl)-2,3,9-trimethyl-6H-thieno[3,2-f][1,2,4]triazolo[4,3-a][1,4]diazepin-6-yl)acetate], in the experiment on MYC expression, the “Maximum Inhibition (%) (mean)” value is reported as 88.4%. Also, the concentration for half-maximal inhibition (IC50) with MYC expression amounted to 2 nM. The Dmax at BRD4 [1] was -73.1%; at BRD4 [2] it was -77.9%.
For `Cc1sc2c(c1C)C(c1ccc(C#CCO)cc1)=N[C@@H](CC(=O)OC(C)(C)C)c1nnc(C)n1-2` [Compound 7a, tert-butyl (S)-2-(4-(4-(3-hydroxyprop-1-yn-1-yl)phenyl)-2,3,9-trimethyl-6H-thieno[3,2-f][1,2,4]triazolo[4,3-a][1,4]diazepin-6-yl)acetate], the “Maximum Inhibition (%) (mean)” value in the experiment on MYC expression is listed as 72.9%. Also, the IC50 with MYC expression was 25.7 nM; at BRD4_BD2 bromodomain it was 10.3 nM; at BRD4_BD1 bromodomain, 17.8 nM. Moreover, the DC50 on BRD4 [1] is greater than 20000 nM.
On to `Cc1sc2c(c1C)C(c1ccc(C#CCNO)cc1)=N[C@@H](CC(=O)OC(C)(C)C)c1nnc(C)n1-2` [Compound 8a, tert-butyl (S)-2-(4-(4-(3-(hydroxyamino)prop-1-yn-1-yl)phenyl)-2,3,9-trimethyl-6H-thieno[3,2-f][1,2,4]triazolo[4,3-a][1,4]diazepin-6-yl)acetate], for which the “Maximum Inhibition (%) (mean)” value in the experiment with MYC expression was found to be 95.1%. The IC50 in the experiment on MYC expression is 7.2 nM. The Dmax was -92.6% on BRD4 [1] and -92.2% on BRD4 [2].
Consider `Cc1sc2c(c1C)C(c1ccc(CCCN)cc1)=N[C@@H](CC(=O)OC(C)(C)C)c1nnc(C)n1-2` [Compound 9a, tert-butyl (S)-2-(4-(4-(3-aminopropyl)phenyl)-2,3,9-trimethyl-6H-thieno[3,2-f][1,2,4]triazolo[4,3-a][1,4]diazepin-6-yl)acetate], for which, in the experiment on MYC expression, the “Maximum Inhibition (%) (mean)” value came to 78.1% and the half-inhibitory concentration (IC50) is 27.7 nM. Moreover, at BRD4 [1], the Dmax is -57.6%.
Turning to `Cc1sc2c(c1C)C(c1ccc(C#CC(C)N)cc1)=N[C@@H](CC(=O)OC(C)(C)C)c1nnc(C)n1-2` (stereo partly drawn) [Compound 11a, tert-butyl 2-((6S)-4-(4-(3-aminobut-1-yn-1-yl)phenyl)-2,3,9-trimethyl-6H-thieno[3,2-f][1,2,4]triazolo[4,3-a][1,4]diazepin-6-yl)acetate], in the experiment with MYC expression, the “Maximum Inhibition (%) (mean)” value came to 72.5% and the IC50 was 20.7 nM. The compound further had an IC50 on BRD4_BD2 bromodomain of 10.6 nM. Further, the IC50 at BRD4_BD1 bromodomain stood at 14.1 nM. On BRD4 [1], the Dmax was -43.3% and the DC50 is greater than 20000 nM.
With `Cc1sc2c(c1C)C(c1ccc(C#CC(C)(C)N)cc1)=N[C@@H](CC(=O)OC(C)(C)C)c1nnc(C)n1-2` [Compound 12a, tert-butyl (S)-2-(4-(4-(3-amino-3-methylbut-1-yn-1-yl)phenyl)-2,3,9-trimethyl-6H-thieno[3,2-f][1,2,4]triazolo[4,3-a][1,4]diazepin-6-yl)acetate], in the experiment on MYC expression, the “Maximum Inhibition (%) (mean)” value turned out to be 73.3% and the concentration for half-maximal inhibition (IC50) was 12.6 nM.
Take `COC(=O)c1cc2c(cc1CS(C)(=O)=O)-c1cn(C)c(=O)c3[nH]cc(c13)CN2c1ncc(C#CCN)cc1F` [Compound 15, methyl 4-(5-(3-aminoprop-1-yn-1-yl)-3-fluoropyridin-2-yl)-10-methyl-7-((methylsulfonyl)methyl)-11-oxo-3,4,10,11-tetrahydro-1H-1,4,10-triazadibenzo[cd,f]azulene-6-carboxylate]: in the experiment on MYC expression, the “Maximum Inhibition (%) (mean)” value is on record as 75.7% and the 50% inhibitory concentration (IC50) stood at 7.2 nM. Also, the DC50 on BRD4 [1] is greater than 20000 nM. Also, the DC50 on BRD4 [2] was greater than 20000 nM.
Turning to `Cc1sc2c(c1C)C(c1ccc(Cl)cc1)=N[C@@H](CC(=O)OC(C)(C)C)c1nnc(C)n1-2` [Compound A, tert-butyl (S)-2-(4-(4-chlorophenyl)-2,3,9-trimethyl-6H-thieno[3,2-f][1,2,4]triazolo[4,3-a][1,4]diazepin-6-yl)acetate, reference compound], in the experiment with MYC expression, the “Maximum Inhibition (%) (mean)” value was determined as 76.3% and the IC50 was determined as 83.4 nM.

For orientation: IC50 means the concentration that gives 50% inhibition.
